What was measured:
Type in all cases: in vivo
[1] = system: Amaranthus retroflexus; experiment: Pre-emergence herbicidal action against AMARE; details: visual score after 3 weeks vs untreated controls
Excerpt: (§1) Seeds of monocotyledonous and dicotyledonous weed plants and crop plants are laid out in sandy loam soil in wood-fiber pots and covered with soil. The compounds of the invention, formulated in the form of wettable powders (WP) or as emulsion concentrates (EC), are then applied to the surface of the covering soil in the form of an aqueous suspension or emulsion at a water application rate equivalent to 600 to 800 l/ha, with addition of 0.2% wetting agent. After the treatment, the pots are placed in a greenhouse and kept under good growth conditions for the trial plants. The damage to the test plants is scored visually after a test period of 3 weeks by comparison with untreated controls (herbicidal activity in percent (%): 100% activity=the plants have died, 0% activity=like control plants). […] The tables below illustrate, in an illustrative manner, the post-emergence herbicidal action of the compounds of the invention, the herbicidal activity being stated in percent.

[2] = system: Matricaria inodora; experiment: Pre-emergence herbicidal action against MATIN; details: visual score after 3 weeks vs untreated controls
Excerpt: as §1

[3] = system: Amaranthus retroflexus; experiment: Post-emergence herbicidal action against AMARE; details: visual assessment about 3 weeks after treatment
Protocol: (§2) Seeds of monocotyledonous and dicotyledonous weed and crop plants are laid out in sandy loam soil in wood-fiber pots, covered with soil and cultivated in a greenhouse under good growth conditions. 2 to 3 weeks after sowing, the test plants are treated at the one-leaf stage. The compounds of the invention, formulated in the form of wettable powders (WP) or as emulsion concentrates (EC), are then sprayed onto the green parts of the plants in the form of an aqueous suspension or emulsion at a water application rate equivalent to 600 to 800 l/ha, with addition of 0.2% wetting agent. After the test plants have been left to stand in the greenhouse under optimal growth conditions for about 3 weeks, the action of the preparations is assessed visually in comparison to untreated controls (herbicidal action in percent (%): 100% activity=the plants have died, 0% activity=like control plants). […] The tables below illustrate, in an illustrative manner, the post-emergence herbicidal action of the compounds of the invention, the herbicidal activity being stated in percent.

[4] = system: Abutilon theophrasti; experiment: Pre-emergence herbicidal action against ABUTH; details: visual score after 3 weeks vs untreated controls
Excerpt: as §1

[5] = system: Alopecurus myosuroides; experiment: Pre-emergence herbicidal action against ALOMY; details: visual score after 3 weeks vs untreated controls
Excerpt: as §1

[6] = system: Echinochloa crus-galli; experiment: Pre-emergence herbicidal action against ECHCG; details: 80 g/ha; visual score after 3 weeks vs untreated controls
Excerpt: as §1

[7] = system: Veronica persica; experiment: Pre-emergence herbicidal action against VERPE; details: 80 g/ha
Excerpt: as §1

[8] = system: Viola tricolor; experiment: Pre-emergence herbicidal action against VIOTR
Excerpt: as §1

[9] = system: Abutilon theophrasti; experiment: Post-emergence herbicidal action against ABUTH
Protocol: as §2

[10] = system: Alopecurus myosuroides; experiment: Post-emergence herbicidal action against ALOMY; details: 20 g/ha
Protocol: as §2

[11] = system: Echinochloa crus-galli; experiment: Post-emergence herbicidal action against ECHCG; details: 20 g/ha, visual assessment about 3 weeks after treatment
Protocol: as §2

[12] = system: Matricaria inodora; experiment: Post-emergence herbicidal action against MATIN; details: visual assessment about 3 weeks after treatment
Protocol: as §2

[13] = system: Setaria viridis; experiment: Post-emergence herbicidal action against SETVI; details: visual assessment about 3 weeks after treatment
Protocol: as §2

[14] = system: Veronica persica; experiment: Post-emergence herbicidal action against VERPE; details: 20 g/ha, visual assessment about 3 weeks after treatment
Protocol: as §2

[15] = system: Viola tricolor; experiment: Post-emergence herbicidal action against VIOTR
Protocol: as §2

[16] = system: Avena fatua; experiment: Pre-emergence herbicidal action against AVEFA; details: 80 g/ha; visual score after 3 weeks vs untreated controls
Excerpt: as §1

[17] = system: Setaria viridis; experiment: Pre-emergence herbicidal action against SETVI
Excerpt: as §1

[18] = system: Pharbitis purpurea; experiment: Post-emergence herbicidal action against PHBPU; details: 20 g/ha, visual assessment about 3 weeks after treatment
Protocol: as §2

Row | Compound | Pre-emergence action against AMARE ([1]; 80 g/ha) [%] | Pre-emergence action against MATIN ([2]; 80 g/ha) [%] | Post-emergence action against AMARE in % ([3]; 20 g/ha) [%] | Pre-emergence action against ABUTH ([4]; 20 g/ha) [%] | Pre-emergence action against ABUTH ([4]; 80 g/ha) [%] | Pre-emergence action against ALOMY ([5]; 80 g/ha) [%] | Pre-emergence action against AMARE ([1]; 20 g/ha) [%] | Pre-emergence action against ECHCG [6] [%] | Pre-emergence action against MATIN ([2]; 20 g/ha) [%] | Pre-emergence action against VIOTR ([8]; 80 g/ha) [%] | Post-emergence action against ABUTH ([9]; 5 g/ha) [%] | Post-emergence action against ABUTH ([9]; 20 g/ha) [%] | Post-emergence action against ALOMY [10] [%] | Post-emergence action against AMARE in % ([3]; 5 g/ha) [%] | Post-emergence action against MATIN in % ([12]; 20 g/ha) [%] | Post-emergence action against SETVI in % ([13]; 5 g/ha) [%] | Post-emergence action against SETVI in % ([13]; 20 g/ha) [%] | Post-emergence action against VIOTR in % ([15]; 20 g/ha) [%] | Pre-emergence action against ALOMY ([5]; 20 g/ha) [%] | also measured
1 | CCOC(=O)[C@@H]1CCCN1C(=O)c1c(C(F)F)ccc(C(=O)Nc2nnnn2C)c1Cl [Example 1-402] | 100 | 90 | 90 | – | – | – | – | – | – | – | – | – | – | – | – | – | – | – | – | –
2 | CCN(CC)C(=O)c1c(C(F)F)ccc(C(=O)Nc2nnnn2CC)c1C [Example 2-59] | 100 | 100 | 100 | 100 | 100 | 90 | 80 | 90 | 90 | 100 | 90 | 90 | 90 | 100 | 90 | 90 | 90 | 90 | – | Pre-emergence action against VERPE [7]: 90%; Pre-emergence action against VIOTR ([8]; 20 g/ha): 100%; Post-emergence action against ECHCG in % [11]: 90%; Post-emergence action against MATIN in % ([12]; 5 g/ha): 80%; Post-emergence action against VERPE in % [14]: 90%; Post-emergence action against VIOTR in % ([15]; 5 g/ha): 80%
3 | CCn1nnnc1NC(=O)c1ccc(C(F)(F)F)c(C(=O)N(C2CC2)C2CC2)c1Cl [Example 2-144] | 100 | 100 | 90 | 90 | 100 | – | – | – | – | 100 | – | – | – | 90 | 80 | – | – | – | – | –
4 | CCn1nnnc1NC(=O)c1ccc(C(F)F)c(C(=O)N(C2CC2)C2CC2)c1Cl [Example 2-175] | 100 | 100 | 100 | 100 | 100 | 90 | 100 | – | 90 | 90 | 80 | 90 | – | 100 | – | – | – | 80 | 80 | –
5 | CCn1nnnc1NC(=O)c1ccc(Br)c(C(=O)N(C)C)c1Cl [Example 2-191] | 100 | 100 | 100 | 90 | 100 | 100 | 100 | 100 | 90 | 80 | 90 | 90 | 100 | 100 | – | 100 | 100 | 80 | 90 | Pre-emergence action against AVEFA [16]: 90%; Pre-emergence action against SETVI ([17]; 20 g/ha): 100%; Pre-emergence action against SETVI ([17]; 80 g/ha): 100%; Post-emergence action against PHBPU in % [18]: 80%

Source: patent US12599136B2, “Substituted isophthalic acid diamides and their use as herbicides” (Bayer Aktiengesellschaft, priority 2020, dated 2026)
